According to patent US11680298B2, “Method of identifying risk of cancer and therapeutic options” (Agency for Science, Technology and Research, priority 2016, dated 2023):
“Also recorded” adds a separate entry of the source.

What was measured:
JAK2 = target: T1, JAK2 (Homo sapiens, UniProt O60674); assay: Western blot of phospho-JAK2 in breast cancer cells and patient-derived tumourspheres; type: cell-based; details: 6 hr pacritinib treatment, western blot
T1 construct: endogenous in cells; host or cells: MB468 and MB231 cells; PDX-derived tumourspheres
From the text: (§1) All immunoblots shown in this specification represent at least two independent experiments. In brief, cells were washed with PBS and lysed in RIPA buffer supplemented with protease and phosphatase inhibitors and further sonicated using an XL2000 Microson Ultrasonice Processor (Misonix). Equal amounts of protein extract were separated on SDS-polyacrylamided gels and transferred to PVDF membranes. Membranes were further blocked with 5% milk or BSA, and then probed with the following antibodies: anti-IRAK1 was purchased from Santa Cruz Biotechnology (Santa Cruz, Calif.; sc-7883), anti-phospho-IRAK1 (T209) was purchased from Assay Biotech (Sunnyvale, Calif.; A1074), anti-JAK2 (Danvers, Mass.; #3230) and anti-phospho-JAK2 ([…]) (Danvers, Mass.: #3774) were purchased from Cell Signaling Technology, anti-actin was purchased from Sigma Aldrich CA; A5441). For protein extraction of xenograft tumours, snap frozen samples were resuspended in RIPA buffer supplemented with protease and phosphatase inhibitors and homogenized with QIAGEN TissueLyzer II as described by the manufacturer, followed by immunoblotting as described above.

[1] = Tolerability during treatment in the PDX mouse model; details: in vivo
Experimental: Surgical procedures and experiments were conducted in compliance with animal protocols approved by the A*STAR-Biopolis Institutional Animal Care and Use Committee of Singapore (IACUC). 6-8 wk old female NOD/MrkBomTac-Prkdcscid mice were purchased from InVivos (Singapore). For PDX orthotopic xenotransplantation, tissue suspension was first prepared from whole tumour explant from mammary fat pad of immunodeficient mice. Whole tumours were washed in PBS, minced with sterile scalpel and triturated until cells could pass through needle bore. The PDX cell suspension was resuspended in reduced Matrigel (BD Bioscience, Cat No: 356230), and then 10 μl was injected into the mammary fat pad. Autoclips was used for primary wound closure. Mice were observed post-procedure for 1-2 hr, and their body weights and wound healing were monitored weekly. Tumours were measured by vernier caliper twice weekly and the tumour volume was calculated with the following formula: V=W×W×L/2.
For in vivo PDX model, each mouse bore one PDX tumour on one side of the mammary fat pad. After the tumours reach 100 mm^3, the mice were randomized into two groups: Vehicle treated control tumour (n=4) and paclitaxel treated tumour ([…]). […] Following the drug treatments, the tumours were monitored for approximately one month. […]

IRAK1 [2] = target: T2, IRAK1 (Homo sapiens, UniProt P51617); details: recently reported; cited from earlier work
IRAK1 [3] = target: T2, IRAK1; assay: Western blot of phospho-IRAK1 in breast cancer cells and patient-derived tumourspheres; type: cell-based; set-up: endogenous in cells; host or cells: MB468 and MB231 cells; PDX-derived tumourspheres
Experimental: Recombinant IL-1p (Cat no: 200-01B) was purchased from Peprotech (Rocky Hill, N.J.). Recombinant S100A7 (Cat no: pro-149), S100A8 (Cat no: pro-800) and S100A9 (Cat no: pro-814), were purchased from ProSpec (East Brunswick, N.J.). Cells were treated with recombinant proteins at stated concentration for 20 min before harvesting for western blot. Paclitaxel (Cat no: P-9600) was purchased from LC Lab (Woburn, Mass.).
as §1

T2 sequence (P51617 whole entry): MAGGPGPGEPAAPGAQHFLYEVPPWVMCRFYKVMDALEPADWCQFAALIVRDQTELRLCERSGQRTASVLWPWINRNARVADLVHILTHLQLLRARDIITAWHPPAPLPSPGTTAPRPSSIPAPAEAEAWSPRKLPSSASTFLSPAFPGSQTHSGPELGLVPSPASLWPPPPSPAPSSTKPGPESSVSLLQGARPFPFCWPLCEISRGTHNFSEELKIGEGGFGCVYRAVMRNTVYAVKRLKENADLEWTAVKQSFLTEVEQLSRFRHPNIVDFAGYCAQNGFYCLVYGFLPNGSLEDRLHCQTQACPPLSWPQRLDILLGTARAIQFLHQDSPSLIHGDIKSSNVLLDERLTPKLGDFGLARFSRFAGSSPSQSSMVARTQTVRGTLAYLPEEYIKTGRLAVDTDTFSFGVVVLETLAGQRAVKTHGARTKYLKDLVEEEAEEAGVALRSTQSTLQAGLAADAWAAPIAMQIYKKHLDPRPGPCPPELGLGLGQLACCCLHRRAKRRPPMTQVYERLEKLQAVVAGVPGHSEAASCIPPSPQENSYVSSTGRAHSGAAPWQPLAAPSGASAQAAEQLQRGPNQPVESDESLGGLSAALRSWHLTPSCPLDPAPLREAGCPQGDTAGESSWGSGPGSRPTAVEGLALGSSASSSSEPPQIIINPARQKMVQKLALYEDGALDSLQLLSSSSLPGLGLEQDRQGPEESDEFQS
T1 sequence (O60674 whole entry): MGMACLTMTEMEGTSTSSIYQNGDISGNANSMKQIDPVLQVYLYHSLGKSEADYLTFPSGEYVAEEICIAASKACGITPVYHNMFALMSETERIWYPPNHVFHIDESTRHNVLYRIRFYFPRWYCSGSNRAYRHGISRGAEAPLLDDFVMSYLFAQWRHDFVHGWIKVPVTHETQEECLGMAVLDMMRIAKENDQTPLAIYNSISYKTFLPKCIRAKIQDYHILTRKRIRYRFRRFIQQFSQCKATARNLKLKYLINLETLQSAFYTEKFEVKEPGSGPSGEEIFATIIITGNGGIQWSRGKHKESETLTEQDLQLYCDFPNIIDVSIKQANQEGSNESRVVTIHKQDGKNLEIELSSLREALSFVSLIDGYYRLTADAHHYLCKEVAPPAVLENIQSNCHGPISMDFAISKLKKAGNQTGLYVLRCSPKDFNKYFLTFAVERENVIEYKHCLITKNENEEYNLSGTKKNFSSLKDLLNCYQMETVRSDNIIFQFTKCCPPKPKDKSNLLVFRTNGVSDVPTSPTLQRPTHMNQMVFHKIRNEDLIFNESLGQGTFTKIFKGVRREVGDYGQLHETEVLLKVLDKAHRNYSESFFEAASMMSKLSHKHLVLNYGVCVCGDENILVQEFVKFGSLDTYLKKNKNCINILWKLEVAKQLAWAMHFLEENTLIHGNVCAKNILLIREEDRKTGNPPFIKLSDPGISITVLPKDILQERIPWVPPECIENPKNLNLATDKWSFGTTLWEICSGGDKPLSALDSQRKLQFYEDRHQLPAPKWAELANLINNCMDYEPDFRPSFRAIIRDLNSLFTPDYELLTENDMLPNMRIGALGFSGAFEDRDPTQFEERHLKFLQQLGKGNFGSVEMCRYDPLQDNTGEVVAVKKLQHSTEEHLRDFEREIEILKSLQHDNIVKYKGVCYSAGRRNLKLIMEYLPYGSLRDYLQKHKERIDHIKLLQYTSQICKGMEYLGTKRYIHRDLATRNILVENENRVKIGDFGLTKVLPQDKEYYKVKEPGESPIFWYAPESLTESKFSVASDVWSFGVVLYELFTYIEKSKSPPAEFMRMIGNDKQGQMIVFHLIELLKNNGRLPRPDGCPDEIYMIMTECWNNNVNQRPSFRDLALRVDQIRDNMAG

For `C1=C/COCc2cc(ccc2OCCN2CCCC2)Nc2nccc(n2)-c2cccc(c2)COC/1` [pacritinib], the “phosphorylation of JAK2” value (JAK2; MB231 cells) was “inhibition of phospho-IRAK1 and phospho-JAK2 within 6 hr; also recorded: inhibited phosphorylation of JAK2”, the “phosphorylation of JAK2” value (JAK2; MB468 cells) was “inhibition of phospho-IRAK1 and phospho-JAK2 within 6 hr; also recorded: effectively block the phosphorylation of both IRAK1 and JAK2 as early as 6 hours in a dose-dependent manner” and the tolerability [1] was “tolerated very well”. For the same molecule, the “toxicity and body weight loss” value [1] was “no obvious toxicity and body weight loss”, the IRAK1 inhibition (IRAK1 [2]) was “potent IRAK1 inhibitor” and the “phosphorylation of IRAK1” value (IRAK1 [3]; MB468 cells, 6 hr pacritinib treatment, western blot) was “inhibition of phospho-IRAK1 and phospho-JAK2 within 6 hr; also recorded: effectively block the phosphorylation of both IRAK1 and JAK2 as early as 6 hours in a dose-dependent manner”. The phospho-IRAK1 (IRAK1 [3]; patient-derived (PDX-derived) tumoursphere cells, 24 hr, pacritinib 2.5 μM, with and without IL-1) was “prolonged inhibition of phospho-IRAK1; also recorded: sustained inhibition of phospho-IRAK1”.
